Source: paper PMC7475180, “The Arabidopsis TRM61/TRM6 complex is a bona fide tRNA N^1-methyladenosine methyltransferase” (Journal of Experimental Botany, 2020)

Molecular target: T1, AtTRM61/AtTRM6 complex (AtTRM61-His/AtTRM6-GST) (Arabidopsis thaliana, UniProt F4K6U9)
T1 construct: gene TRM61; CDSs of AtTRM61 (pET28a+, His tag) and AtTRM6 (pGEX-4T-2, GST tag) co-expressed in E. coli, Ni-NTA purified; tag removal not mentioned; heterodimeric complex; with tRNA (adenine(58)-N(1))-methyltransferase non-catalytic subunit TRM6
T1 sequence (F4K6U9 1-318): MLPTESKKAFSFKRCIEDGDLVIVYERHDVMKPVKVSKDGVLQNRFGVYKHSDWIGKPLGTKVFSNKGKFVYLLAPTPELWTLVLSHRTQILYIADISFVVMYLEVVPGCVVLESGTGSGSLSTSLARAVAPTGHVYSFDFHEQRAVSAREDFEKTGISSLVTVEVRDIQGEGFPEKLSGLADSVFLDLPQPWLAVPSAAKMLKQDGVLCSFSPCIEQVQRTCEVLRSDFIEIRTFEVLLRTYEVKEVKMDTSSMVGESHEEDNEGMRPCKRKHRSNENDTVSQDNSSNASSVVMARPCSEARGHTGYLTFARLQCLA
T1 sequence (O80846 1-446 partner): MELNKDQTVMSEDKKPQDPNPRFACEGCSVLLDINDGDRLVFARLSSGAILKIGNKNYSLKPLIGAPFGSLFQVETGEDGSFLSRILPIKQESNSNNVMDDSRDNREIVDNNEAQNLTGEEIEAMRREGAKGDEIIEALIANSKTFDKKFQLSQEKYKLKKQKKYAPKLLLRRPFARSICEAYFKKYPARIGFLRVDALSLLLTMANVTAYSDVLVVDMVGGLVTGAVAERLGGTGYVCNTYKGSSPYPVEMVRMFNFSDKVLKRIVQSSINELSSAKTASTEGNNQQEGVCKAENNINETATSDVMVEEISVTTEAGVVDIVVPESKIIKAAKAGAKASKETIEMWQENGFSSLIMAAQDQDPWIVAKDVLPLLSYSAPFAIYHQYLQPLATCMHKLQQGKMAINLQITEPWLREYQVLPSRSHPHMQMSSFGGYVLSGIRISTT
Assay: m1A formation on tRNA, anti-m1A immuno-northern blot
Type: biochemical
Conditions: methyl donor, 30 mM AdoMet as printed; 150 nM RNA substrate (trm6-506 yeast tRNA or in vitro transcribed Arabidopsis tRNAiMet); 15 nM protein; 30 °C, 30 min

## C[S+](CC[C@H](N)C(=O)O)C[C@H]1O[C@@H](n2cnc3c(N)ncnc32)[C@H](O)[C@@H]1O (stereo partly drawn) [S-adenosyl-L-methionine]
  m1A formation on tRNA, anti-m1A immuno-northern blot: The purified complex was then incubated with a methyl donor (SAM)
